Test results: US6403651B1, “Mediation of circadian rhythms” (Luminis Pty Limited, priority 1997, dated 2002)

Legend:
[1] = test system: melatonin production (urinary aMT.6S excretion); assay: 6-Sulphatoxymelatonin rhythmicity after agonist administration at CT18; format: in vivo, rat; conditions: DOI 0.5 mg/kg (1.4 μmole/kg) at CT18, rats in continuous darkness
Method: (§1) Male albino wistar rats (100 g, n=5-10) were housed in metabolism cages in lightproof environment chambers in 12 hours of light followed by 12 hours of darkness, designated 12L:12D. After 3-4 days acclimation to a liquid diet (Osmolite HN) hourly urine collections commenced. The general experimental design was:
Night 1: Control collection-lights remained off from lights out for the remainder of the experiment.
Night 2: Drug administration or light pulses administered at CT 18, i.e., 6 hours after the subjective lights out. Urine collections were maintained throughout the subjective night.
Nights 3 & 4: Urine collections continued to determine any entraining effects of the stimuli.
(§2) Melatonin production was monitored by the urinary excretion of 6-sulphatoxymelatonin (aMT.6S), determined by radioimmunoassay. The time of onset of metabolite excretion was defined as the time of day that the excretion rate exceeded 20 pmol/h.
Two lighting conditions were used to investigate the effects of drugs on SCN/pineal gland function; animals held in a light: dark cycle (L:D; Type VI method of Aschoff) and animals acutely transferred to continuous darkness (DD; Type II method of Aschoff) [Aschoff J. Response curves in circadian periodicity. In Aschoff J., ed. Circadian Clocks. Amsterdam: North Holland Publishing, 1965:95-111]. […]

[2] = test system: core body temperature rhythm; assay: Core body temperature rhythm studies; format: in vivo, rat; conditions: DOI 0.5 mg/kg subcutaneously at CT18, rats
Method: Groups of 5 rats were implanted with temperature transmitters under 3% halothane/oxygen anaesthesia and kept in individual cages on a 12L: 12D photoperiod. Five days after implanting the transmitters, the lights were turned off at the normal time (ZT12) and remained off for 5 days. The animals were injected subcutaneously with either DOI (0.5 mg/kg) or saline vehicle at CT18 (ie 30 hours after last lights off). The temperature was sampled at 10 minute intervals. Five days after the drug treatment the animals were re-entrained to the LD cycle for 8 days and either exposed to a 5 minute/20 lux light pulse 30 hours after re-initiation of constant darkness or left untreated. To determine any delays in the temperature rhythm, the time of the day that the temperature dropped below the group daily mean (37.4° C.) was calculated and the mean delay±SEM determined.

[3] = test system: DOI induced phase delay in melatonin production; assay: Effects of serotonin antagonists on the melatonin response to DOI; format: in vivo, rat; conditions: antagonist 0.07 μmole/kg 30 minutes prior to DOI (1.4 μmole/kg) at CT18
Method: as §1, §2
The effects of the serotonin antagonists ritanserin and ketanserin on the melatonin response to DOI was determined. Both drugs were administered in doses of 0.7, 0.28 and 0.07 μmole/kg, 30 minutes prior to DOI (1.4 μmole/kg; 0.5 mg/kg) at CT 18; In addition, ritanserin (6.3 μmole/kg) and ketanserin (18 μmole/kg) were administered 30 minutes prior to saline injection at CT 18. Both antagonists were dissolved in DMSO and injected in a volume of 200 μl.

[4] = test system: DOI induced c-Fos in the rat SCN; assay: Effects of antagonists on DOI induced c-Fos in the SCN; format: in vivo
Method: As a check on the specificity of the response (SCN versus direct pineal effects) experiments were also conducted to monitor c-Fos induction in the SCN in response to the treatments. Animals were sacrificed by decapitation 2 hours after treatments. Brains were removed immediately and fixed by immersion in a 4% solution of paraformaldehyde in 0.1 M buffer (pH 7.4) at room temperature. After approximately 30 hours in the fixative solution at room temperature, the brains were briefly rinsed in phosphate buffered saline (PBS) and 70 μm coronal sections were obtained on a microtome. Free floating sections were permeabilised in a 0.3% solution of Triton X-100 in PBS at 4° C. overnight. […] The immunopositive cells were quantified using a computerised image analysis system.
To determine the effects of the antagonists on c-Fos induction in the SCN, ritanserin and ketanserin were injected in doses of 1.4, 0.7 and 0.14 μmole/kg at ZT 17.5. […] The response to ritanserin (6.3 μmole/kg) and ketanserin (18 μmole/kg) administered 30 minutes prior to saline injection at CT 18 was also determined.

[5] = test system: light pulse induced phase delay in aMT.6S onset; assay: Effect of serotonin antagonists on the melatonin response to a light pulse; format: in vivo, rat; conditions: metergoline 15 mg/kg or ritanserin 3 mg/kg at CT17.5, light 2 lux/1 minute at CT18
Method: Male albino wistar rats (100 g, n=5-10) were housed in metabolism cages in lightproof environment chambers in 12 hours of light followed by 12 hours of darkness, designated 12L:12D. After 3-4 days acclimation to a liquid diet (Osmolite HN) hourly urine collections commenced. The general experimental design was: Melatonin production was monitored by the urinary excretion of 6-sulphatoxymelatonin (aMT.6S), determined by radioimmunoassay. The time of onset of metabolite excretion was defined as the time of day that the excretion rate exceeded 20 pmol/h. To determine the effects of the serotonin antagonist, metergoline (15 mg/kg), ritanserin (3 mg/kg) and LY-53,857 (3 mg/kg) on the melatonin response to a light pulse, the drugs were administered at CT17.5. At CT18, a 2 lux light pulse was given for one minute. Using similar methodology the effects on c-fos induction in the SCN were determined.

5-HT2c receptors = biological target: T1, 5-HT2c receptors (Homo sapiens, UniProt P28335); conditions: ritanserin versus ketanserin, stated as known; cited from earlier work
T1 sequence (P28335 33-458): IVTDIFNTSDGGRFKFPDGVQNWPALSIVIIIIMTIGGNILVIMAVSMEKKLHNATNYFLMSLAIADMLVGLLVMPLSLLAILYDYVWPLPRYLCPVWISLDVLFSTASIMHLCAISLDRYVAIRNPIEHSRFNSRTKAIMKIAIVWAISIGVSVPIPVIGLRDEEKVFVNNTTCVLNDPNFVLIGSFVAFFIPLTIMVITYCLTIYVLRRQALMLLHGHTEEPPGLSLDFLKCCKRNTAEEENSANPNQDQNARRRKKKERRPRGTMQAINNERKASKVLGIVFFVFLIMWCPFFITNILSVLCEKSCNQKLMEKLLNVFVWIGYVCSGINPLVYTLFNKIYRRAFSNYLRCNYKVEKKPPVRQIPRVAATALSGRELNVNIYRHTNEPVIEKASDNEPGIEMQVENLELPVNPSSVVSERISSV

## COc1cc(CC(C)N)c(OC)cc1I (racemic) [DOI, (+/−)-1-(4-iodo-2,5-dimethoxy-phenyl)-2-aminopropane]
[1]
  melatonin metabolite (aMT.6S) excretion immediately following injection: acute decrease
[2]
  morning decline in body temperature: significantly delayed

## O=C(c1ccc(F)cc1)C1CCN(CCn2c(=O)[nH]c3ccccc3c2=O)CC1 [ketanserin]
[3]
  effect on DOI induced phase delay in melatonin production: ineffective
[4]; antagonist 0.7 μmole/kg 30 minutes before DOI (1.4 μmole/kg)
  number of cells positive for c-Fos per unilateral SCN after DOI: significantly greater (P<0.05) than those observed following ritanserin 0.7 μmole/kg but not significantly different from the vehicle control

## CN1C[C@H](CNC(=O)OCc2ccccc2)C[C@@H]2c3cccc4c3c(cn4C)C[C@H]21 [metergoline]
[5]
  block of the phase delay in aMT.6S onset induced by the light pulse: failure of the antagonists to block the phase delay

## Cc1nc2sccn2c(=O)c1CCN1CCC(=C(c2ccc(F)cc2)c2ccc(F)cc2)CC1 [ritanserin]
[3]
  effect on DOI induced phase delay in melatonin production: inhibits
[4]; comparison of ritanserin with ketanserin pre-treatment
  inhibition of the increase in appearance of c-Fos caused by a 5-HT2c high affinity compound: greater effect than ketanserin
[5]
  block of the phase delay in aMT.6S onset induced by the light pulse: failure of the antagonists to block the phase delay
5-HT2c receptors
  affinity for 5-HT2c receptors relative to ketanserin: 10 fold
